Reference: a melting point compilation (Tetko et al.; mined from patent text by program, amines drawn as free bases though some values may be those of a salt)

SMILES	melting point [°C]
CC(C)c1cn2ccccc2c1Sc1ccc(O)cc1	100
Cc1ccc2c(c1)C(=O)C(=O)N2CCCN(C(C)C)C(C)C	87 to 89
CCC(C)(C)NC(=O)c1ccc(S(=O)(=O)Cl)c(OC)c1	104
CCOc1ccc(OC)c2c1CCC([N+](=O)[O-])=C2	90 to 92
Cc1ccc(Cl)cc1C1CC(=O)c2c(C)ccnc2C1 (stereo unspecified)	125 to 127
CCCCCCCCCCCCCCC(=O)C(=O)NCCCC(=O)OCC	63 to 64
CC(=O)c1cc(Cn2ccnc2)ccc1O	106 to 107
Oc1ccnc2[nH]cc(-c3ccncn3)c12	> 210
COc1cc2nc(N)nc(-c3cccc(OC(F)(F)F)c3)c2cc1OC	233 to 235
Cc1ccc(Nc2nc(Cl)nc(Cl)n2)cc1F	130
CCCCc1nc2c(N)nc3cccnc3c2n1CCCC(C)=NOC	132 to 134
CN(C)c1ccc(C2(c3ccc(N(C)C)cc3Cl)OC(=O)c3cc(N(C)C)ccc32)cc1 (stereo unspecified)	233 to 234
O=C1C=C(O)CC(c2ccccc2)N1 (stereo unspecified)	166 to 169
CC(=O)C1CCC2C3CCC4CC(O)C(N5CCSC(C)(C)C5)CC4(C)C3C(=O)CC12C (stereo unspecified)	202 to 203
CCN(CC)CCn1c(O)nc2cc(Cl)c(Cl)nc21	137 to 139
CS(=O)(=O)N[C@@H]1CCCC[C@H]1Nc1nc(Nc2ccc3c(c2)CN(CCO)CCS3)ncc1Cl	76 to 86
CC(C)(C)OC(=O)NCCOC(=O)COc1ccc(CCCCN(C(=N)N)C(=O)c2nc(Cl)c(N)nc2N)cc1	80 to 82
COC(=O)C1=C(C)NC(C)=C(C(=O)OCC2CCCO2)C1c1cccc(C#N)c1 (stereo unspecified)	127 to 129
CCN(CC)C(=O)OCC1CN(C(=S)c2cc(OC)c(OC)c(OC)c2)CCN1C(=O)c1cc(OC)c(OC)c(OC)c1 (stereo unspecified)	106
CN1C(=O)CCCc2ccc(Nc3ncc(Cl)c(N[C@@H]4CCCC[C@H]4NS(C)(=O)=O)n3)cc21	127 to 130

SMILES	melting point [°C]
CCOC(=O)c1ccc2nccc(O)c2c1	233 to 234
Cc1c(I)nc2n1CCc1ccccc1C2OC1CCN(C)CC1 (stereo unspecified)	59
CN(C)CCCNC(=O)Cn1cnc(-c2ccccc2)c1-c1ccccc1	92 to 94
CCOC(=S)c1csc2nc(Cc3ccccc3)cn12	83 to 84
O=C(NC(=O)c1ccc(F)cc1Cl)Nc1ccc(C(F)(F)F)c(F)c1	181
CNC(=O)C(=NOC)c1ccccc1COc1ncc(C(=O)OC(C)C)cc1C	101 to 102
Cc1cc(Nc2nc(Cl)nc(Nc3cc(C)c(O)c(C(C)(C)C)c3)n2)cc(C(C)(C)C)c1O	214
CN1CC(CO)C=C2c3cccc4[nH]c(Cl)c(c34)CC21 (stereo unspecified)	207
C#CCOCC(=O)Nc1ccccc1	142 to 145
COC(C)(CN(c1c(C)cccc1Cl)S(C)(=O)=O)OC	84
N=C(N)NN=C1CCc2ccc(N)cc21	> 280
O=C(C=C(S)c1ccccc1)Nc1nc2ccccc2s1	168 to 172
CCc1ccc(N(Cc2ccc(N(C)C)cc2)C(=O)C2CCCc3ccccc32)cc1 (stereo unspecified)	109 to 110
CC(C)Oc1cccc(N2CC(=O)NC(=O)N2)c1	170 to 172
COc1cc(-c2ccc(N)cc2C(=O)NCCNC(=O)c2cc(N)ccc2-c2cc(OC)c(OC)c(OC)c2)cc(OC)c1OC	> 250
Cc1nn(-c2cc(OC(C)C)c(Cl)cc2F)c(=O)[nH]1	120 to 124
CC(=O)Nn1cnn(C2CCc3ccccc3C2)c1=S (stereo unspecified)	199 to 201
CCCCC1Cc2c(c3cccnc3n(-c3ccccc3)c2=O)O1 (stereo unspecified)	179 to 180
CCCn1c(=O)c2[nH]c(C34CC5CC(CC(C5)C3)C4)nc2n(CCC)c1=O	169 to 171
COCOCc1nc2nc(O)cnc2c(=O)[nH]1	224 to 226

SMILES	melting point [°C]
OC1CSC(Oc2cccc(-c3ccc(Cl)nc3)c2)C(O)C1O (stereo unspecified)	189
Cn1c(C=O)cnc1[N+](=O)[O-]	114 to 115
CCCCCCCCCCCCOC(=O)CCC(=O)c1ccc(NCc2ccc3ccc4nc(C)[nH]c(=O)c4c3c2)cc1	213 to 214
CC12CC(N3CCOCC3)C(O)CC1CCC1C2CCC2(C)C(O)C(N3CCCCC3)CC12 (stereo unspecified)	222 to 229
O=C1c2ccccc2C(O)N1CCSc1ccncc1 (stereo unspecified)	112
CC(=O)Oc1ccc2c(c1)CCC1C2CCC2(C)C(OC(C)=O)CCC12 (stereo unspecified)	128 to 129
O=C(O)CSc1nc(=O)[nH]cc1F	255
CC(C)N(C(=O)CBr)C(C)C	64 to 65.5
Cc1c(Cl)ccc2[nH]c(CO)cc12	108
CCCCCCCCCCCCCCCCCCNc1nc(N)nc(N)n1	91
O=C(CCc1cccc2[nH]ccc12)c1ccccc1OCC1CO1 (stereo unspecified)	72
CC(C)(C)Oc1cccc(Cl)c1C(=O)O	117 to 119
C#CCn1cc(C#N)c(CO)c1	95
CC(=O)Nc1cc(CN(C)C)c2ncc(C#N)c(Nc3cccc(Br)c3)c2c1	162 to 167
N#CC1(c2ccc(NC(=O)c3ccc4c(c3)OCCO4)cc2)CCCC1	164 to 167
O=C(c1ccccc1)c1cc2cc(Cl)ncc2[nH]1	194 to 197
CC(=NO)c1csc(S(N)(=O)=O)c1	185 to 188
CCOC(=O)CN1C(=O)COc2cc(F)ccc21	90 to 91.5
CC(C)(C)OC(=O)N1CCN(C(=O)OC[C@@]2(C)Cn3cc([N+](=O)[O-])nc3O2)CC1	211 to 212
OCCCc1ccc2oc(Cc3ccc4ccccc4c3)nc2c1	102 to 103

Further lines, results first:

melting point [°C]	SMILES
130 to 133	COC(=O)Nc1cccc(OCC(O)CN(Cc2ccccc2)C(C)(C)C)c1O (stereo unspecified)
233 to 236	COC(=O)/C=C/c1cc2c(-c3ccccc3)c(CC(=O)Nc3ccc(F)cc3C(F)(F)F)c(=O)oc2cc1C
208 to 210	COc1nc2ccc(Br)cc2c2c1C(=O)c1ccccc1-2
138 to 142	CC(C)c1cccc(C(C)C)c1NC(=O)NCC1(c2ccccc2)CC1
157 to 158	CCOC(=O)c1sc(-c2ccc3c(=O)n(CC(C)C)c(CNC(=O)OCC4c5ccccc5-c5ccccc54)c(-c4ccccc4)c3c2)nc1C
> 300	CC(=O)Nc1cccc(C=Cc2nc3c(c(=O)n(C)c(=O)n3C)n2C)c1
41 to 43	COc1cccc(CSCCNC(=O)c2c(OC)cccc2OC)c1
277	COc1ccc(-c2[nH]nc3c2C(=O)c2c(NC(=O)CN4CCNCC4)cccc2-3)cc1
135 to 138	C[C@H]1C[C@@](O)(c2cccc(S(=O)(=O)c3cc4c(cc3F)N(C)C(=O)CC4)c2)CCO1
269 to 271	COC(=O)c1cc(O)c2c(ccc3sc4ccc(F)cc4c32)n1
187 to 189	Cc1c(C(=O)Nc2ccc(OCCN3CCOCC3)c(C#N)c2)cnn1-c1ccc(Cl)cc1
100 to 103	O=C(CN1CCOCC1)N[C@@H](Cc1cccc2ccccc12)C(=O)O
178 to 181	COC(=O)C1=Cc2cc(-c3ccc(N4CCOCC4)cc3)ccc2N(C=O)CC1
187 to 189	CN(C)C=CC(=O)c1c(-c2ccc(F)cc2)nc2occn12
243 to 245	c1ncn(Cc2ccc3c(c2)-c2[nH]nc(-c4ccsc4)c2C3)n1
203 to 205	O=C(O)c1cccc(Nc2ccc(-c3ccoc3)cc2[N+](=O)[O-])c1
125 to 139	CC(Oc1ccc2nc(NC(=O)NCCN3CCN(Cc4ccccc4)CC3)sc2c1)c1c(Cl)ccc(F)c1Cl (stereo unspecified)
135 to 137	O=C(NCC1CC1)c1ccnc(N2CCN(Cc3ccc(F)cc3)C2=O)c1
44 to 45.5	COc1ccc(C(=O)Cc2cccs2)cc1
136 to 139	CCCCOCCOc1ccc(-c2ccc(N3CCC(C)C3)c(C=CC(=O)O)c2)cc1 (stereo unspecified)
124 to 126	CCN(CCOc1cccnc1[N+](=O)[O-])CCN1C(=O)c2ccccc2C1=O

melting point [°C]	SMILES
154	CC(C)NC(=O)c1nc(-c2ccccc2)c(-c2ccc(=O)n(C)n2)s1
78 to 80	COCc1nccn1CC(=O)c1ccc(-c2ccc(N3C[C@H](Cn4ccnn4)OC3=O)cc2F)cn1
213 to 215	COc1ccc(-c2cnc(NS(=O)(=O)Cc3ccccc3)c(Cc3ccccc3)n2)cc1
137 to 138	COC(=O)c1cccc(C2=NC(C)(C)Cc3cc(OC)c4c(c32)CC(C)(C)O4)c1
206 to 208	O=C(CCc1ccncc1)c1c(O)c2cccnc2n(-c2ccccc2)c1=O
155 to 157	COc1ccc2c(c1)C(=O)c1cc(CC(=O)O)ccc1SC2
200	COc1ccc(C(=O)c2cccc(F)c2)cc1C(=O)O
135 to 140	Cc1[nH]cnc1CC1CCc2[nH]c3c(F)cccc3c2C1=O (stereo unspecified)
247 to 249	COc1ccc(C=C2Oc3ccc(C(=O)O)cc3C2=O)c(OC)c1OC
238	O=C(O)c1ncn2c(C(F)F)cc(-c3ccc(C(F)(F)F)cc3)nc12
115 to 117	CCOC(=O)C(C)(C)c1cn2nc(NCCCN3CCC(NC(c4ccccc4)c4ccccc4)CC3)ccc2n1
155 to 156	COc1ncccc1NC(=NC#N)NC(NC(=O)c1ccc(Cl)cc1)C(C)(Cl)Cl (stereo unspecified)
86.5 to 88	COc1ccc(C2(COC(C)=O)CCC(=O)CC2)cc1
300 to 301	CC(C)(C)c1ccc(C(=O)Nc2cn3cc(C#N)ccc3n2)cc1
168 to 170	COc1cccc(CNC(=O)c2nc3ccc(SC)cc3c(=O)[nH]2)c1
141 to 142	O=S(=O)(ON=C1CCCc2ccccc21)c1ccc(O)cc1
103 to 106	CCCOc1ccc(-c2scc(-c3ccccc3Cl)c2CC(=O)NC(=N)NCCCO)c(C)c1
100 to 101	Cc1oc(-c2ccco2)nc1COc1cccc(CO)c1
206 to 207	COCCCn1c(C=O)c(Br)c2c3c(c(-c4ccccc4Cl)cc21)C(=O)NC3=O
211 to 213	COc1cn(-c2cc(F)c(Br)cc2F)nc(-c2ccnn2-c2ccccc2)c1=O
